This note sets out measurements from ChEMBL document CHEMBL1201862, “PubChem BioAssay data set” (2004).

Test systems include ACHN; CAKI-1; HCC 2998; HOP-92; KM12; NCI-H522; OVCAR-5; RXF 393; SF-539; SK-MEL-28; SK-OV-3; SN12C; SW-620; TK-10; UO-31; MCF7; MDA-MB-231; NCI/ADR-RES; PC-3; MDA-N.
Common to all, as to assay: DTP human tumour cell line panel, 48 h

The term GI50 denotes the concentration giving 50% growth inhibition.

Several values for one entry are separate records, joined by “and”; a condition that tells them apart may be missing. Identical values can stand only once.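 Cells were grown in 96-well plates and exposed to each compound for 48 hours at five concentrations; endpoints were interpolated linearly between bracketing concentrations, or set to the highest concentration if not reached. At the GI50, growth is halved.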 Activity calls are given as the source filed them. No stated cut-off is given here; in the data, active = GI50 up to about 1.1 µM and inactive = higher.

For `CCOCN/C(N)=N\C#N`, the GI50 with ACHN, with CAKI-1, with HCC 2998, in the assay on HOP-92, in the assay with KM12 and in the assay with NCI-H522 was > 100 µM (inactive) each time. Also, the GI50 in the assay on OVCAR-5 is > 100 µM (inactive); in the assay with RXF 393, 61.8 µM (inactive); with SF-539 it was > 100 µM (inactive); with SK-MEL-28, > 100 µM (inactive); in the assay on SK-OV-3 it was > 100 µM (inactive); in the assay with SN12C, > 100 µM (inactive). Further, the GI50 is 18.3 µM (inactive) with SW-620, > 100 µM (inactive) with TK-10 and > 100 µM (inactive) with UO-31.
For the compound `O=C(CCc1nnc2s/c(=C\c3ccc4c(c3)OCO4)c(=O)n12)Nc1cc(Cl)ccc1Cl`, the GI50 in the assay with ACHN, in the assay on CAKI-1, in the assay with HCC 2998, with HOP-92, with KM12 and in the assay on NCI-H522 was > 100 µM (inactive) throughout. In addition, the GI50 in the assay on OVCAR-5, with RXF 393, in the assay with SF-539, with SK-MEL-28, in the assay on SK-OV-3 and in the assay on SN12C was > 100 µM (inactive) in each case. The GI50 in the assay on SW-620 is > 43.6 µM (inactive); in the assay with TK-10, > 100 µM (inactive); in the assay with UO-31, > 100 µM (inactive).
Take `O=C1C=CC(=O)c2c(NCC3CC3)ccc(NCC3CC3)c21`: the GI50 was 39.9 µM (inactive) in the assay on ACHN; 57.5 µM (inactive) in the assay on HCC 2998; 33.6 µM (inactive) with KM12; 24.7 µM (inactive) with MCF7; 36.1 µM (inactive) in the assay on MDA-MB-231; 1.05 µM (active) in the assay on NCI-H522. In addition, the GI50 was 64.1 µM (inactive) in the assay with NCI/ADR-RES; 59 µM (inactive) in the assay on OVCAR-5; 46.2 µM (inactive) with PC-3; 25.5 µM (inactive) in the assay on SF-539; 28.6 µM (inactive) in the assay with SK-MEL-28; 23.2 µM (inactive) with SN12C. In addition, the GI50 in the assay on SW-620 was 34.5 µM (inactive); with TK-10, > 100 µM (inactive); in the assay with UO-31, 75.2 µM (inactive).
As for `C#CC1(O)CCC2[C@@H]3CCc4cc(Oc5nc(F)nc(-c6c7ccccc7cn6C)n5)ccc4C3CC[C@@]21C` (stereo not given in full), the GI50 in the assay on ACHN is > 100 µM (inactive); with CAKI-1, > 100 µM (inactive); in the assay with HCC 2998, > 100 µM (inactive); in the assay on HOP-92 it was > 100 µM (inactive); with KM12 it was > 100 µM (inactive); in the assay on NCI-H522 it was 89.3 µM (inactive). Also, the GI50 in the assay on OVCAR-5 is > 100 µM (inactive); with RXF 393, > 93.1 µM (inactive); in the assay on SF-539, > 100 µM (inactive); in the assay with SK-MEL-28, > 100 µM (inactive); in the assay on SK-OV-3 it was > 100 µM (inactive); with SN12C, > 100 µM (inactive). Moreover, the figures for the GI50 with SW-620, in the assay on TK-10 and in the assay on UO-31 were 55.5 µM (inactive), > 100 µM (inactive) and > 62.1 µM (inactive), respectively.
Turning to `COc1cc(-c2c(C(C)=O)c(-c3ccccc3)n(C3OC(COC(C)=O)C(OC(C)=O)C(OC(C)=O)C3OC(C)=O)c(=S)c2C#N)ccc1O` (stereo not given), the GI50 was 55.3 µM (inactive) in the assay with ACHN; > 100 µM (inactive) with CAKI-1; 36.6 µM (inactive) in the assay with HOP-92; 71.6 µM (inactive) and 89.5 µM (inactive) with KM12; > 100 µM (inactive) and 81.5 µM (inactive) in the assay on MCF7; 33 µM (inactive) and 49.8 µM (inactive) with MDA-N. In addition, the GI50 is > 100 µM (inactive) in the assay on NCI/ADR-RES; > 100 µM (inactive) in the assay with OVCAR-5; 46.8 µM (inactive) and 65.6 µM (inactive) in the assay with PC-3; > 100 µM (inactive) and 78.5 µM (inactive) in the assay with RXF 393; > 100 µM (inactive) with SK-MEL-28; > 100 µM (inactive) in the assay on SN12C. In addition, the GI50 in the assay on SW-620 is > 100 µM (inactive); in the assay with UO-31, > 100 µM (inactive) and 55.1 µM (inactive).
In the case of `C=C1C(=O)C23C(O)C1CCC2C12CO[C@]3(O)[C@@H](O)C1C(C)(C)CCC2O` (stereo not given in full), the GI50 is 14.1 µM (inactive) in the assay with ACHN; 15.2 µM (inactive) in the assay with CAKI-1; 16.1 µM (inactive) in the assay with HCC 2998; 3.49 µM (inactive) with HOP-92; 16.1 µM (inactive) in the assay on KM12; 0.798 µM (active) with NCI-H522. In addition, the GI50 was 20.2 µM (inactive) in the assay with OVCAR-5; 7.93 µM (inactive) in the assay on RXF 393; 14.7 µM (inactive) with SF-539; 4.45 µM (inactive) in the assay with SK-MEL-28; 20.3 µM (inactive) in the assay with SK-OV-3; 14.3 µM (inactive) in the assay on SN12C. In addition, the GI50 with SW-620 is 5.81 µM (inactive); with TK-10, 19.4 µM (inactive); in the assay with UO-31, 17.1 µM (inactive).
With `CC(C)(C)c1cc(C(O)(C(F)(F)F)C(F)(F)F)c2c(c1)C(C(F)(F)F)(C(F)(F)F)OC(c1ccccc1)(C(C)(C)C)N2` (stereo not given), the GI50 in the assay on ACHN is 3.7 µM (inactive); in the assay on CAKI-1, 4.02 µM (inactive); in the assay with HCC 2998, 8.07 µM (inactive); in the assay with HOP-92 it was < 0.01 µM (active); with KM12, 4.5 µM (inactive); in the assay with NCI-H522 it was 3.03 µM (inactive). The GI50 was 18.8 µM (inactive) with OVCAR-5; 3.37 µM (inactive) in the assay on RXF 393; > 100 µM (inactive) in the assay on SF-539; 9.16 µM (inactive) in the assay with SK-MEL-28; 2.7 µM (inactive) in the assay on SK-OV-3; 4.85 µM (inactive) in the assay on SN12C. Besides, the GI50 in the assay with SW-620 was 4.5 µM (inactive); in the assay with TK-10, 3.02 µM (inactive); in the assay on UO-31 it was 4.04 µM (inactive).
As to `NC1=Nc2ccccc2Sc2ccccc21`, the GI50 is > 100 µM (inactive) in the assay on ACHN; > 100 µM (inactive) with CAKI-1; > 100 µM (inactive) in the assay on HCC 2998; 32.7 µM (inactive) with HOP-92; > 100 µM (inactive) with KM12; 60.3 µM (inactive) in the assay on NCI-H522. For the same compound, the GI50 in the assay on OVCAR-5 was > 100 µM (inactive); in the assay with RXF 393, 95.7 µM (inactive); in the assay with SF-539 it was 58.5 µM (inactive); in the assay with SK-MEL-28, > 100 µM (inactive); in the assay with SK-OV-3, > 100 µM (inactive); with SN12C it was > 100 µM (inactive). Also, the GI50 in the assay on SW-620 is > 100 µM (inactive); in the assay on TK-10, > 100 µM (inactive); in the assay with UO-31, 34.4 µM (inactive).
For the compound `CS(=O)(=O)OCCN(CCOS(C)(=O)=O)c1ccc(/C=N/N=c2/nc[nH]c3nc[nH]c23)cc1`, the GI50 in the assay on ACHN is 17.4 µM (inactive); with CAKI-1 it was 14.2 µM (inactive); in the assay with HCC 2998 it was 19.4 µM (inactive); in the assay with HOP-92, 16.9 µM (inactive); with KM12, 15.6 µM (inactive); in the assay with NCI-H522, 12.3 µM (inactive). Moreover, the GI50 is 20.6 µM (inactive) in the assay with OVCAR-5; 15.7 µM (inactive) in the assay on RXF 393; 18.3 µM (inactive) with SF-539; 19.3 µM (inactive) in the assay with SK-MEL-28; 26.2 µM (inactive) in the assay with SK-OV-3; 35.2 µM (inactive) with SN12C. For the same compound, the GI50 was 16 µM (inactive) in the assay on SW-620, 26.9 µM (inactive) in the assay on TK-10 and 28.3 µM (inactive) with UO-31.
Consider `CNC(=O)NCCCCC(NC(=O)OCc1ccccc1)C(=O)OCc1ccccc1` (stereo not given), for which the GI50 in the assay with ACHN is 19.1 µM (inactive); in the assay with CAKI-1, 23.7 µM (inactive); with HCC 2998, 20.3 µM (inactive); in the assay on HOP-92, 36 µM (inactive); in the assay with KM12 it was 29.9 µM (inactive); in the assay on NCI-H522, 14.5 µM (inactive). Further, the GI50 with OVCAR-5 was 46 µM (inactive); in the assay with RXF 393 it was 16.4 µM (inactive); in the assay with SF-539 it was 19 µM (inactive); in the assay on SK-MEL-28, 21.1 µM (inactive); in the assay with SK-OV-3 it was > 100 µM (inactive); in the assay with SN12C it was 24.2 µM (inactive). Also, the GI50 is > 100 µM (inactive) with SW-620, 21.9 µM (inactive) in the assay with TK-10 and 18.2 µM (inactive) with UO-31.
As for `O=[N+]([O-])c1cc(-c2ccc([As](=O)(O)O)cc2)ccc1[As](=O)(O)O`, the GI50 with ACHN, in the assay on CAKI-1, in the assay on HOP-92, in the assay with KM12, in the assay with MDA-MB-231 and in the assay on MDA-N was > 100 µM (inactive) throughout. In addition, the GI50 with NCI-H522, with NCI/ADR-RES, with OVCAR-5, in the assay on PC-3, in the assay with RXF 393 and with SK-MEL-28 was > 100 µM (inactive) throughout. In addition, the GI50 with SN12C, in the assay with SW-620, in the assay on TK-10 and with UO-31 was > 100 µM (inactive) throughout.
Turning to `CN(C)c1ccc(/C=C(\NC(=O)c2ccccc2)c2nc3cncnc3[nH]2)cc1`, the GI50 with ACHN is > 100 µM (inactive); in the assay with CAKI-1, > 100 µM (inactive); in the assay with HCC 2998, > 100 µM (inactive); with HOP-92, 41.5 µM (inactive); in the assay on KM12, > 100 µM (inactive); in the assay with NCI-H522, > 100 µM (inactive). The GI50 in the assay on OVCAR-5, in the assay on RXF 393, with SF-539, in the assay on SK-MEL-28, with SK-OV-3 and with SN12C was > 100 µM (inactive) in each case. The GI50 in the assay on SW-620, in the assay on TK-10 and with UO-31 was > 100 µM (inactive) in each case.
In the case of `Cn1cc2ccccc2c1-c1nc(N)nc(F)n1`, the GI50 in the assay with ACHN, in the assay on CAKI-1, with HCC 2998, in the assay on HOP-92, with KM12 and in the assay with NCI-H522 was > 100 µM (inactive) throughout. Besides, the GI50 in the assay on OVCAR-5 was > 100 µM (inactive); in the assay with RXF 393, 82.8 µM (inactive); with SF-539, > 100 µM (inactive); in the assay with SK-MEL-28, > 100 µM (inactive); with SK-OV-3 it was > 100 µM (inactive); with SN12C, > 100 µM (inactive). In addition, the GI50 in the assay on SW-620 was 78.3 µM (inactive); with TK-10, > 100 µM (inactive); in the assay with UO-31 it was 67.9 µM (inactive).
